According to patent publication US20020187514A1 (priority 1999, published 2002):

Tests used:
Adenosine, A2 = Adenosine, A2 (UniProt P30543); assay: Adenosine, A2; [3H]CGS21680; assay type: binding
Adrenergic, Alpha 2A = Adrenergic, Alpha 2A (Homo sapiens, UniProt P08913); assay: Adrenergic, Alpha 2A (Human); [3H]MK-912; assay type: binding; settings: read-out: Pass 1 (10^−5 M) % Inhibition
Adrenergic, Alpha 2B = Adrenergic, Alpha 2B (UniProt P19328); assay type: binding
Cannabinoid, CB2 = molecular target: T1, Cannabinoid, CB2 (Homo sapiens, UniProt P34972); assay: Cannabinoid, CB2 (Human recombinant); [3H]-CP55940; assay type: binding; settings: read-out: Pass 1 (10^−5 M) % Inhibition
T1 construct: expressed in transfected cells

Clozapine = assay type: binding
Dopamine, D2s = molecular target: T2, Dopamine, D2s (Homo sapiens, UniProt P14416); assay: Dopamine, D2s (Human Recombinant); [3H]-Spiperone; assay type: binding; settings: read-out: Pass 1 (10^−5 M) % Inhibition
T2 construct: expressed in transfected cells

GABA-B = assay type: binding
[1] = test system: Glutamate, NMDA Agonist Site; assay: Glutamate, NMDA Agonist Site; [3H]CGP 39653; assay type: binding; settings: 10^−5 M
Histamine, H1 = molecular target: T3, Histamine, H1 (Bos taurus, UniProt P30546); assay: Histamine, H1; [3H]Pyrilamine; assay type: binding; settings: read-out: Pass 1 (10^−5 M) % Inhibition
T3 construct: no other source notation after assay name denotes animal cell or animal tissue source; from tissue; host or cells: animal cell or animal tissue, not specified

Histamine, H2 = molecular target: T4, Histamine, H2 (Cavia porcellus, UniProt P47747); assay: biochemical; assay type: binding; settings: read-out: Pass 1 (10^−5 M) % Inhibition
T4 construct: no other source notation after assay name denotes animal cell or animal tissue source; from tissue; host or cells: animal cell or animal tissue, not specified
T4 sequence (P47747 whole entry): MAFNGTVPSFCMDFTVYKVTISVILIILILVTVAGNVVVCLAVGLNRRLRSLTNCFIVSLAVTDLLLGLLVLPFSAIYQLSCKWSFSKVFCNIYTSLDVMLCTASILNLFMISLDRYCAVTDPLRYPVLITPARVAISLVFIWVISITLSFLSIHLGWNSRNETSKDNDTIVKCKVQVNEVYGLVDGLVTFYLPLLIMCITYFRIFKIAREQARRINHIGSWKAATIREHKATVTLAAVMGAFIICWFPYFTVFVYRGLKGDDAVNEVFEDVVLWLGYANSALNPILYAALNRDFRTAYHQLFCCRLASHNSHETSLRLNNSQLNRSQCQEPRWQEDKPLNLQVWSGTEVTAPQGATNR

Imidazoline, I1 = assay: Imidazoline, I1; [125I]-Clonidine; assay type: binding; settings: 10^−5 M
[2] = test system: Nicotinic (a-bungarotoxin insensitive); assay type: binding; settings: 10^−5 M
Opiate, Delta 2 = molecular target: T5, Opiate, Delta 2 (Homo sapiens, UniProt P41143); assay: Opiate, Delta 2 (Human Recombinant); [3H]-Naltrindole; assay type: binding; settings: read-out: Pass 1 (10^−5 M) % Inhibition
T5 construct: expressed in transfected cells

Opiate, Mu = Opiate, Mu (UniProt P33535); assay type: binding
Serotonin, 5HT1B = molecular target: T6, Serotonin, 5HT1B (Rattus norvegicus, UniProt P28564); assay: biochemical; assay type: binding; settings: read-out: Pass 1 (10^−5 M) % Inhibition
T6 construct: no other source notation after assay name denotes animal cell or animal tissue source; from tissue; host or cells: animal cell or animal tissue, not specified

Serotonin, 5HT2A = Serotonin, 5HT2A (Homo sapiens, UniProt P28223); assay: biochemical; assay type: binding; settings: read-out: Pass 1 (10^−5 M) % Inhibition
Serotonin, 5HT4 = molecular target: T7, Serotonin, 5HT4 (Cavia porcellus, UniProt O70528); assay: biochemical; assay type: binding; settings: read-out: Pass 1 (10^−5 M) % Inhibition
T7 construct: no other source notation after assay name denotes animal cell or animal tissue source; from tissue; host or cells: animal cell or animal tissue, not specified

Serotonin, 5HT7 = molecular target: T8, Serotonin, 5HT7 (Homo sapiens, UniProt P34969); assay: biochemical; assay type: binding; settings: read-out: Pass 1 (10^−5 M) % Inhibition
T8 construct: expressed in transfected cells

Sigma 1 = molecular target: T9, Sigma 1 (Cavia porcellus, UniProt Q60492); assay: Sigma 1; [3H]-(+)-Pentazocine; assay type: binding, guinea pig
T9 construct: Fresh guinea pig whole brain was obtained following decapitation; from tissue; host or cells: guinea pig whole brain membranes
T9 sequence (Q60492 whole entry): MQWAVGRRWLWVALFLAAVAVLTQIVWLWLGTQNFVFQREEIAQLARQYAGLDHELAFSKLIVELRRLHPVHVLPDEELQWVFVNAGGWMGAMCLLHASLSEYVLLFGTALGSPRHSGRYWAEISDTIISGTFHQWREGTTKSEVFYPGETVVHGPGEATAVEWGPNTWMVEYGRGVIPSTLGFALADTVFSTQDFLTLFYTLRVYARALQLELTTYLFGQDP

Complement C5a = Complement C5a (Homo sapiens, UniProt P21730); assay: Complement C5a (Human); [125I]BH-rC5a; assay type: binding; settings: read-out: Pass 1 (10^−5 M) % Inhibition
Chain of Complement C5a (P21730 whole entry): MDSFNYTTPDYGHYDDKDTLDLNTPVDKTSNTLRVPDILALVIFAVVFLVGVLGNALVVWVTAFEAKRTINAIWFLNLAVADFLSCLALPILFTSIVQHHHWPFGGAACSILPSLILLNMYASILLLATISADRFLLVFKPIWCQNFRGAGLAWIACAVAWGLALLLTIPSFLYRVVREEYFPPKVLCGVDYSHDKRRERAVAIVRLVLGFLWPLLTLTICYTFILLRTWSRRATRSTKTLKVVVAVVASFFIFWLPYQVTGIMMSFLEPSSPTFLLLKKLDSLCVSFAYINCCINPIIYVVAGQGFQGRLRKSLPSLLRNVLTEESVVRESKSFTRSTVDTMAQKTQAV

Estrogen = assay: Estrogen; [125I]3,17B-Estradiol, 16a; assay type: binding; settings: 10^−5 M
Testosterone (cytosolic) = Testosterone (cytosolic) (UniProt P15207); assay type: binding
[3] = molecular target: Calcium Channel, Type L (Benzothiazepine Site) (Rattus norvegicus, UniProt P22002); assay: Calcium Channel, Type L (Benzothiazepine Site); [3H]Diltiazem, cis(+); assay type: binding; settings: read-out: Pass 1 (10^−5 M) % Inhibition
Chain of Calcium Channel, Type L (Benzothiazepine Site) (P22002 whole entry, looked up): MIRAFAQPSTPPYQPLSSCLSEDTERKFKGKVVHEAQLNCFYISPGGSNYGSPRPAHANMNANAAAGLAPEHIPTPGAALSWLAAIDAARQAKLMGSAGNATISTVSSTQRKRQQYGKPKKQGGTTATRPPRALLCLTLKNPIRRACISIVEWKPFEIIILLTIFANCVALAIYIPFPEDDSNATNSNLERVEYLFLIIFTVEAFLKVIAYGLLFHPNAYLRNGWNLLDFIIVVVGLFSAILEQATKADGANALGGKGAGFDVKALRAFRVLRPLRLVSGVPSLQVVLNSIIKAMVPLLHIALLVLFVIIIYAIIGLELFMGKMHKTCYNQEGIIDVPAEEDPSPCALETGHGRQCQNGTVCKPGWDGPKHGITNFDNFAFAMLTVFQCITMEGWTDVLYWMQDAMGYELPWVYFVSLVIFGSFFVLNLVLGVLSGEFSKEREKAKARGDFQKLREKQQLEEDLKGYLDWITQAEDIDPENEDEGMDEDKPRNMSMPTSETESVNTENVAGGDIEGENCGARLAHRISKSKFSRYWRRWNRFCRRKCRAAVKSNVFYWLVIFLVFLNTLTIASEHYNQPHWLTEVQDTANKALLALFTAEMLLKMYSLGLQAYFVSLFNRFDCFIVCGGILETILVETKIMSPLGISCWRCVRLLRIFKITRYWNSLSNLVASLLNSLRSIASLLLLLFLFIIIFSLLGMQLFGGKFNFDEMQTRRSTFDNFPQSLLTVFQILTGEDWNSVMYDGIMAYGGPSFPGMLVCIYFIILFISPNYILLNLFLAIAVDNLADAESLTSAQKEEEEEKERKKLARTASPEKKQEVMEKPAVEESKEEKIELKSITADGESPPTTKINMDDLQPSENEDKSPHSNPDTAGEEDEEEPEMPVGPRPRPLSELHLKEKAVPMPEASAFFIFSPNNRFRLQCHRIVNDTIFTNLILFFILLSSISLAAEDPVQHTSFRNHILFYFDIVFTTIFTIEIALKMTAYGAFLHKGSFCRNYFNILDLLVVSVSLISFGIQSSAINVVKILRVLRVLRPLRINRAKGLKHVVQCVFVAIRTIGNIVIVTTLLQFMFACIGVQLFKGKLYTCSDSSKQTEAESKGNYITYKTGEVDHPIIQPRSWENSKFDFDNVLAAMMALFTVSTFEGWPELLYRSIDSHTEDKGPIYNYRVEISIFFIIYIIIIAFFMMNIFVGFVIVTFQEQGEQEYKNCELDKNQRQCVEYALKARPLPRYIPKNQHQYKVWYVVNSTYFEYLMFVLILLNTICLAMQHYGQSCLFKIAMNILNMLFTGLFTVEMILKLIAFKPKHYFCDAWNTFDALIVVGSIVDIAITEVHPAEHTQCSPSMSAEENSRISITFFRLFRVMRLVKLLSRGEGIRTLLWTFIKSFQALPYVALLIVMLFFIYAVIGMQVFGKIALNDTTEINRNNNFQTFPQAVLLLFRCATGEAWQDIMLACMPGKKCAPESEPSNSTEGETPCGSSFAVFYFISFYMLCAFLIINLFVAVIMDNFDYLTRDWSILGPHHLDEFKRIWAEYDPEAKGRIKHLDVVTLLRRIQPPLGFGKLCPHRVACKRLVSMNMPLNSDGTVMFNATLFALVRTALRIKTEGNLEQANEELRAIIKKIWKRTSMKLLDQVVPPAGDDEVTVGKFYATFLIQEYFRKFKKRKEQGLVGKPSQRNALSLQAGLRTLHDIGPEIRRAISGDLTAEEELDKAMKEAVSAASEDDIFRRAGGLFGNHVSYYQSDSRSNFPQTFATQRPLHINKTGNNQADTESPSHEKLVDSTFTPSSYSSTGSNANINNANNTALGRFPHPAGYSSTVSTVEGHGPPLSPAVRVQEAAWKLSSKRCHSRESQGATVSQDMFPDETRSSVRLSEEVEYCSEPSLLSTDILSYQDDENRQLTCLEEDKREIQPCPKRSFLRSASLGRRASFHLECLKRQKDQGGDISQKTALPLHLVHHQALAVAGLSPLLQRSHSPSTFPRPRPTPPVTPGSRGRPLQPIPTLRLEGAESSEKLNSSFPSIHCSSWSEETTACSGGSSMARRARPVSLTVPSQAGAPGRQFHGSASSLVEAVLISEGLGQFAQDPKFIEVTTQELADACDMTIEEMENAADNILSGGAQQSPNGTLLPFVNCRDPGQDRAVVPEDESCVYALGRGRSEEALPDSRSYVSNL

[4] = test system: GABA, Chloride, TBOB Site; assay type: binding
Sodium, Site 2 = assay type: binding
[5] = test system: Ahenylate Cyclase, Forskolin; assay: Ahenylate Cyclase, Forskolin; [3H]Forskolin; assay type: binding; settings: 10^−5 M
Adenosine Transport (es) = Adenosine Transport (es) (Homo sapiens, UniProt Q99808); assay: biochemical; settings: read-out: Pass 1 (10^−5 M) % Inhibition
Chain of Adenosine Transport (es) (Q99808 whole entry): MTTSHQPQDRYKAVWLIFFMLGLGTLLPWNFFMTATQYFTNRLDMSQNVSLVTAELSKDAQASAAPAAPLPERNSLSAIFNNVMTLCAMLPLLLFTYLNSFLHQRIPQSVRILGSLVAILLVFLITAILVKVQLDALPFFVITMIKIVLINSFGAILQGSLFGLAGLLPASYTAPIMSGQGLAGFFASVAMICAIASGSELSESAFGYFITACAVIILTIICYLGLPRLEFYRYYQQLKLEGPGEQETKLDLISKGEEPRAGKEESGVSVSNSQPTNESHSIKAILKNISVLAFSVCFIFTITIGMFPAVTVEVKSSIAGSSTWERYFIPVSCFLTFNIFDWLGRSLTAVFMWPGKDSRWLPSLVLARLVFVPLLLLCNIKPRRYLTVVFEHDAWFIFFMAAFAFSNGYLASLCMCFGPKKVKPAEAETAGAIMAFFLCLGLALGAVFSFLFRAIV

Leukotrine D4, LTB4 = assay: Leukotrine D4, LTB4; [3H]LTD4; assay type: binding; settings: 10^−5 M
Oxytocin = assay type: binding; settings: 10^−5 M
Bradykinin, BK2 = molecular target: T10, Bradykinin, BK2 (Homo sapiens, UniProt P30411); assay: Bradykinin, BK2 (Human recombinant); [3H]-Bradykinin; assay type: binding; settings: read-out: Pass 1 (10^−5 M) % Inhibition
T10 construct: expressed in transfected cells

Neurokinin, NK2 (NKA) = molecular target: T11, Neurokinin, NK2 (NKA) (Homo sapiens, UniProt P21452); assay: biochemical; assay type: binding; settings: read-out: Pass 1 (10^−5 M) % Inhibition
T11 construct: expressed in transfected cells
T11 sequence (P21452 whole entry): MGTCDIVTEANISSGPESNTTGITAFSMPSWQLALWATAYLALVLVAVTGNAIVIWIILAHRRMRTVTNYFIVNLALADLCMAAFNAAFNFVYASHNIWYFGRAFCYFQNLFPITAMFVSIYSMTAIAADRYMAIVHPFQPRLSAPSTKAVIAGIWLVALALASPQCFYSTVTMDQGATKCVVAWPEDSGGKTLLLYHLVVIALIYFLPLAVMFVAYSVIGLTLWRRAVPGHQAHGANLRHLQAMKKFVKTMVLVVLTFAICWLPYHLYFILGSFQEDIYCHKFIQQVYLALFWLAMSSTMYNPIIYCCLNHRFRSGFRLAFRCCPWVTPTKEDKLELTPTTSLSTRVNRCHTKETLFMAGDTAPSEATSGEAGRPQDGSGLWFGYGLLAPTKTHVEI

Neurotensin = molecular target: T12, Neurotensin (Homo sapiens, UniProt P30989); assay: biochemical; assay type: binding; settings: read-out: Pass 1 (10^−5 M) % Inhibition
T12 construct: expressed in transfected cells
T12 sequence (P30989 whole entry): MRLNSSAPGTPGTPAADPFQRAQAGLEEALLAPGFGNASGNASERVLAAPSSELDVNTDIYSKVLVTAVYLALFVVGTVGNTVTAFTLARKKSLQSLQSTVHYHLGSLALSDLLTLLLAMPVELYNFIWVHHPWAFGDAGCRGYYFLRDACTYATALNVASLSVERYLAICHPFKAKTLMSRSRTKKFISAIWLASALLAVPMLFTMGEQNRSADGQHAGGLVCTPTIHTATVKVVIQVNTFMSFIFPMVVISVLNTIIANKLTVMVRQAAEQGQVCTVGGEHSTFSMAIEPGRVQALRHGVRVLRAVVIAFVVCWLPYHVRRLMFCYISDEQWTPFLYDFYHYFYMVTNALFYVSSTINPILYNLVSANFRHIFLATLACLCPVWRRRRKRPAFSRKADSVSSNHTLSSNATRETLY

[6] = test system: Vasoactive Intestine Peptide, Non-selective; assay type: binding; settings: 10^−5 M
Vasopressin, V1A = Vasopressin, V1A (Homo sapiens, UniProt P37288); assay: Vasopressin, V1A (Human); [125I]-Via Antagonist; assay type: binding; settings: read-out: Pass 1 (10^−5 M) % Inhibition
[7] = molecular target: T13, Monoamine Oxidase A, Peripheral (Rattus norvegicus, UniProt P21396); assay: biochemical; settings: read-out: Pass 1 (10^−5 M) % Inhibition
T13 construct: no other source notation after assay name denotes animal cell or animal tissue source; from tissue

[8] = test system: Protein Phosphatase, PP2B (Calcineurin); assay: Protein Phosphatase, PP2B (Calcineurin); substrate pNPP; assay type: biochemical; settings: 10^−5 M
[9] = molecular target: Protein Tyrosine Phosphatase, PTP-CD45 (Homo sapiens, UniProt P08575); assay: Protein Tyrosine Phosphatase, PTP-CD45 (Human); substrate pNPP; assay type: biochemical; settings: read-out: Pass 1 (10^−5 M) % Inhibition
Dopamine, D1 = Dopamine, D1 (Homo sapiens, UniProt P21728); assay: biochemical; settings: read-out: Pass 1 (10^−5 M) % Inhibition
Chain of Dopamine, D1 (P21728 whole entry): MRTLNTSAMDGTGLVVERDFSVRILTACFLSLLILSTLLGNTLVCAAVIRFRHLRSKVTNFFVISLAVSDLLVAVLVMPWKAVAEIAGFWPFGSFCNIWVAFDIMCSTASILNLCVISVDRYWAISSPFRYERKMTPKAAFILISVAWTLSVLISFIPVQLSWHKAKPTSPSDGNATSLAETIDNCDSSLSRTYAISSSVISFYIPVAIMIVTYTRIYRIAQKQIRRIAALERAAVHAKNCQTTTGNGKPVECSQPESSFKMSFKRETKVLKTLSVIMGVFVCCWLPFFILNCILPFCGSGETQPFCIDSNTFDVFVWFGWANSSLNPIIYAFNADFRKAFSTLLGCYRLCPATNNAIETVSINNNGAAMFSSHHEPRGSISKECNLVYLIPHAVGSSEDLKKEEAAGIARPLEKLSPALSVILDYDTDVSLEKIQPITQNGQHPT

[10] = molecular target: GABA A, BDZ, alpha 1, central (Bos taurus, UniProt P08219+P22300); assay: biochemical; settings: read-out: Pass 1 (10^−5 M) % Inhibition
Muscarinic, M3 = Muscarinic, M3 (Homo sapiens, UniProt P20309); assay: biochemical; settings: read-out: Pass 1 (10^−5 M) % Inhibition
Serotonin Transporter = Serotonin Transporter (Homo sapiens, UniProt P31645); assay: biochemical; settings: read-out: Pass 1 (10^−5 M) % Inhibition

With `COC(=O)[C@H]1[C@@H](OC(=O)c2ccccc2)C[C@@H]2CC[C@H]1N2C` [cocaine] the “Pass 1 (10^−5 M) % Inhibition” value (Adenosine, A2) was 26.30%, the inhibition at 10 µM (Adrenergic, Alpha 2A) was 15.3% and the “Pass 1 (10^−5 M) % Inhibition” value (Adrenergic, Alpha 2B) was −3.82%. For the same compound, the inhibition at 10 µM (Cannabinoid, CB2) was 0.78%, the “Pass 1 (10^−5 M) % Inhibition” value (Clozapine) was 1.37% and the inhibition at 10 µM (Dopamine, D2s) was 30.6%. For the same compound, the “Pass 1 (10^−5 M) % Inhibition” value (GABA-B) was 24.90%, the “Pass 1 (10^−5 M) % Inhibition” value [1] was 38.66% and the inhibition at 10 µM (Histamine, H1) was -19.7%. For the same compound, the inhibition at 10 µM (Histamine, H2) was 28.8%, the “Pass 1 (10^−5 M) % Inhibition” value (Imidazoline, I1) was −0.78% and the “Pass 1 (10^−5 M) % Inhibition” value [2] was 12.28%. The inhibition at 10 µM (Opiate, Delta 2) was 21.5%, the “Pass 1 (10^−5 M) % Inhibition” value (Opiate, Mu) was −4.22% and the inhibition at 10 µM (Serotonin, 5HT1B) was 3.31%. For the same compound, the inhibition at 10 µM (Serotonin, 5HT2A) was 23.4%, the inhibition at 10 µM (Serotonin, 5HT4) was 22.1% and the inhibition at 10 µM (Serotonin, 5HT7) was 26.8%. The Ki (Sigma 1) was 11.6 µM, the inhibition at 10 µM (Sigma 1; read-out: Pass 1 (10^−5 M) % Inhibition) was 64.7% and the inhibition at 10 µM (Complement C5a) was 15.2%. The “Pass 1 (10^−5 M) % Inhibition” value (Estrogen) was 12.80%, the “Pass 1 (10^−5 M) % Inhibition” value (Testosterone (cytosolic)) was −7.60% and the inhibition at 10 µM [3] was 20.3%. The “Pass 1 (10^−5 M) % Inhibition” value [4] was 8.40%, the “Pass 1 (10^−5 M) % Inhibition” value (Sodium, Site 2) was 36.80% and the “Pass 1 (10^−5 M) % Inhibition” value [5] was 6.27%. The inhibition at 10 µM (Adenosine Transport (es)) was 47.5%, the “Pass 1 (10^−5 M) % Inhibition” value (Leukotrine D4, LTB4) was −17.11% and the “Pass 1 (10^−5 M) % Inhibition” value (Oxytocin) was −4.65%. For the same compound, the inhibition at 10 µM (Bradykinin, BK2) was 4.48%, the inhibition at 10 µM (Neurokinin, NK2 (NKA)) was 13.7% and the inhibition at 10 µM (Neurotensin) was 19.1%. The “Pass 1 (10^−5 M) % Inhibition” value [6] was 30.71%, the inhibition at 10 µM (Vasopressin, V1A) was -4.37% and the inhibition at 10 µM [7] was 32.8%. The “Pass 1 (10^−5 M) % Inhibition” value [8] was −10.37%, the inhibition at 10 µM [9] was 12% and the inhibition at 10 µM (Dopamine, D1) was 17.5%. It also gave an inhibition at 10 µM [10] of 9.58%, an inhibition at 10 µM (Muscarinic, M3) of -8.07% and an inhibition at 10 µM (Serotonin Transporter) of 97.5%.
